Experimental data as given in patent US8802053B2 (Brookhaven Science Associates, LLC, priority 2009, dated 2014).

Columns and labels:
[1] = test system: brain aromatase; assay: PET studies in baboons (brain imaging); type: in vivo, baboon
Method: PET Studies in Baboons: All animal studies were reviewed and approved by the Brookhaven Institutional Animal Care and Use Committee. […] Baboons were anesthetized with ketamine (10 mg/kg) and then intubated and ventilated with a mixture of isoflurane (Forane, 1-4%) and nitrous oxide (1500 mL/min) and oxygen (800 mL/min). Animals were transported to and from the PET facility in a temperature controlled transfer cage and a member of the staff attended them while they recovered from anesthesia. Catheters were inserted in a popliteal artery and radial arm vein for arterial sampling a radiotracer injection respectively. Dynamic PET imaging was carried out on a Siemen's HR+ high resolution, whole body PET scanner (4.5×4.5×4.8 mm at center of field of view) in 3D acquisition mode, 63 planes. A transmission scan was obtained with a ^68Ge rotating rod source before the emission scan to correct for attenuation before each radiotracer injection. […] Dynamic scanning was carried out for 90 minutes with the following time frames (1×10 sec; 12×5 sec; 1×20 sec; 1×30 sec; 8×60 sec; 4×300 sec; 8×450 sec). […] During the PET scan, baboons were monitored for heart rate, respiration rate, PO2 and temperature. Animals were allowed 4 weeks between studies to recover from anesthesia and blood sampling.
Image Analysis: Time frames were summed over the 90 minute experimental period. Regions of interest were placed over the amygdala, the preoptic area, frontal cortex, cerebellum and thalamus on the summed image and then projected onto the dynamic images to obtain time activity curves. Regions occurring bilaterally were averaged. Carbon-11 concentration in each region of interest was divided by the injected dose to obtain the % dose/cc. The summed PET images from one baboon was co-registered with a 3D MR image of the same animal using PMOD (PMOD Technologies, Ltd.).

[2] = Plasma analysis for fraction of 11C-isomers (unchanged parent tracer by HPLC); type: in vivo; conditions: baboon plasma
Method: Plasma analysis for fraction of ^11C-isomers: Plasma samples at 1, 5, 10, 30 and 60 min were analyzed by HPLC to determine the percent of residual parent tracer. Plasma samples from selected time points were added to 300 μL acetonitrile containing an appropriate amount of standard, then subjected to cell disruption using a Polytron (Brinkmann Instruments), centrifuged for 4 minutes and decanted into 300 μL water. HPLC conditions were 60:40 0.1 M ammonium formate:acetonitrile, Waters μBondapak column (3.9×300 mm), flow 1.3 mL/min, UV detection at 254 nm. Supernatants were injected onto the column, reserving a measured amount to determine recovery of injected activity from the column. […] Five fractions were collected from each injection, 3 before the parent peak, the parent peak, and finally the tail of the parent peak. The percent unchanged tracer was determined by dividing the sum of the last 2 peaks by the sum of all HPLC fractions.

[3] = test system: brain aromatase enzymes; conditions: Kil et al. (2008); cited from earlier work

With `[11CH3]n1nc2ccc(C(c3ccc(Cl)cc3)n3cncn3)cc2n1` (stereo not drawn) [N-2 isomer] the “distribution to aromatase-rich brain regions” value ([1]; baboon brain) was “no specific distribution to aromatase-rich brain regions”, the “PET image uptake in amygdala and preoptic area” value ([1]; baboon brain, images summed 15-90 min after injection, FIG. 3) was “no specific uptake in amygdala and preoptic area” and the “appearance of labeled metabolites in plasma” value [2] was “very rapid appearance of labeled metabolites”. The “disappearance of parent labeled compound from plasma” value [2] was “rapid rate of disappearance of the parent labeled compound from plasma”.

In the case of `N#Cc1ccc(C(c2ccc(C#N)cc2)n2cncn2)cc1` [[^11C]letrozole], the “blocking of uptake by pretreatment with unlabeled letrozole” value [3] is given as “failed to block uptake” and the “brain uptake and clearance” value [3] is given as “rapidly taken up in the brain and was then rapidly cleared”.

For `N#Cc1ccc(C(c2ccc(C#N)cc2)n2cncn2)cc1` [letrozole, reference compound], the “effect of pretreatment on [N-methyl-11C]vorozole accumulation in brain” value ([1]; blocking dose 0.1 mg/kg, 5 min prior, baboon) was “reduced [N-methyl-^11C]vorozole accumulation in all brain regions examined”.
